Results on 19 compounds are retold here after patent US9714238B2, “Therapeutic agents for ocular hypertension” (Allergan, Inc., priority 2010, dated 2017).

Data set [1] addresses T1, EP2 (Homo sapiens, UniProt P43116). Briefly: EP2 binding. As to conditions: unit inferred. As for the experimental part:
(§1) Data from running binding and activity studies on the compounds of the invention were carried out as described in the U.S. Pat. No. 7,427,685, the contents of which are incorporated herein by reference.

Data set [2] deals with T2, EP4 (Homo sapiens, UniProt P35408). Description: EP4 binding. To be noted: unit inferred. As for the experimental part: as §1
T2 sequence (P35408 whole entry): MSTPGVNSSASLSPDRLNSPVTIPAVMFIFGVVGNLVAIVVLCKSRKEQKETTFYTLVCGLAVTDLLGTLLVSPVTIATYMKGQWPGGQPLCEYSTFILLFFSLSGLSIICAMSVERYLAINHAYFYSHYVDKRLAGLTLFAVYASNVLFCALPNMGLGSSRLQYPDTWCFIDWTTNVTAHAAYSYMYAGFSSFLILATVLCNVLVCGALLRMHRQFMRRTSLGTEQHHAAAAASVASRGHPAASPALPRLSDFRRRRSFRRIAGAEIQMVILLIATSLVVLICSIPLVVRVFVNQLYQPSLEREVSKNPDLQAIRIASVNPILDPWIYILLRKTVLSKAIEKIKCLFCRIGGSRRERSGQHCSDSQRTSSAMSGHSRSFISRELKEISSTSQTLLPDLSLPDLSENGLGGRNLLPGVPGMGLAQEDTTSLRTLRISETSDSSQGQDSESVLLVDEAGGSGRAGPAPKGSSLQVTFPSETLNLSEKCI
Data set [3] addresses T1, EP2. Briefly: EP2 cAMP functional assay. The data set is classed as cell-based. To be noted: unit inferred. As for the experimental part:
as §1

Data set [4] addresses T2, EP4. Briefly: EP4 flipr functional assay. The class given is cell-based. As to conditions: unit inferred. The procedure: as §1
The target in the next data set is T3, hTP (Homo sapiens, UniProt P21731).
T3 sequence (P21731 1-343): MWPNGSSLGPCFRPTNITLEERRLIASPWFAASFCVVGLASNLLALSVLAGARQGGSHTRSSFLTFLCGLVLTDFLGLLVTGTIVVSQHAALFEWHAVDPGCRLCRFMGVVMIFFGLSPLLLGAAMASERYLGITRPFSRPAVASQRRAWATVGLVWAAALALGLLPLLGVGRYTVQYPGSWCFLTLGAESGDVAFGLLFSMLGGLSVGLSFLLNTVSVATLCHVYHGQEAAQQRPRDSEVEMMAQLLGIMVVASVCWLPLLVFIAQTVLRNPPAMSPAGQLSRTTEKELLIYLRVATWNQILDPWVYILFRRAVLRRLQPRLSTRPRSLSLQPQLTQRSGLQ
Briefly: Other receptors functional activity, hTP. The data set is classed as cell-based. The procedure: as §1

A further data set has as its target T4, hEP3A (Homo sapiens, UniProt P43115).
T4 sequence (P43115 1-390): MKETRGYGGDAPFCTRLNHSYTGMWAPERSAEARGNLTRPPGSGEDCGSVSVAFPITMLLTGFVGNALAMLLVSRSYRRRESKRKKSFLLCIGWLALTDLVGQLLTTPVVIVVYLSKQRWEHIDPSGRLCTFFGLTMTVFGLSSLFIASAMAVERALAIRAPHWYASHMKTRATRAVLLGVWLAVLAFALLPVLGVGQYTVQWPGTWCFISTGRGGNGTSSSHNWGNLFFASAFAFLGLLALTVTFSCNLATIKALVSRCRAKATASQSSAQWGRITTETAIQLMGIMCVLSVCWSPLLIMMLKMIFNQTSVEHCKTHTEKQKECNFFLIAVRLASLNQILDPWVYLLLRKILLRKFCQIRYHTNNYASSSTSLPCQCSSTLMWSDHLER
Description: Other receptors functional activity, hEP3A. The class given is cell-based. The procedure:
as §1

Data set [5] deals with T2, EP4. Description: EP4 cAMP functional assay. The class given is cell-based. To be noted: unit inferred. As for the experimental part: as §1
The subject of a further data set is normotensive dogs. Briefly: Intraocular pressure and ocular surface hyperemia in normotensive dogs. The data set is classed as in vivo, dog. As for the experimental part: Isopropyl 2-(3-(6-hexyl-1-naphthamido)phenoxy)acetate was tested in normotensive dogs at 0.05%, dosing once daily for 5 days. The maximum intraocular pressure (IOP) decrease from baseline was 4.7 mmHg (28%) at 30 h; the maximum ocular surface hyperemia (OSH) score was 1.0 at 26 h. This compound was also tested in laser-induced hypertensive monkeys, using one single day dose. At 0.05%, the maximum IOP decrease from baseline was 17.1 mmHg (48%) at 24 h.
Isopropyl 2-(3-(6-(1-hydroxyhexyl)-1-naphthamido)phenoxy)acetate was tested in normotensive dogs at two concentrations, dosing once daily for 5 days. At 0.005%, the maximum intraocular pressure (IOP) decrease from baseline was 4.1 mmHg (22%) at 4 h; the maximum ocular surface hyperemia (OSH) score was 1.6 at 2 h. At 0.01%, the maximum intraocular pressure (IOP) decrease from baseline was 4.4 mmHg (26%) at 4 h; the maximum ocular surface hyperemia (OSH) score was 1.5 at 50 h. This compound was also tested in laser-induced hypertensive monkeys at two concentrations, using one single day dose. At 0.005%, the maximum IOP decrease from baseline was 8.1 mmHg (30%) at 24 h. At 0.01%, the maximum IOP decrease from baseline was 15.4 mmHg (42%) at 24 h.
Isopropyl 2-(3-(6-butyl-1-naphthamido)phenoxy)acetate was tested in normotensive dogs at 0.01%, dosing once daily for 4 days. The maximum intraocular pressure (IOP) decrease from baseline was 5.1 mmHg (26%) at 78 h; the maximum ocular surface hyperemia (OSH) score was 0.9 at 4 h. This compound was also tested in laser-induced hypertensive monkeys, using one single day dose. At 0.01%, the maximum IOP decrease from baseline was 14.1 mmHg (38%) at 24 h.
Isopropyl 2-(3-(3-hexylquinoline-8-carboxamido)phenoxy)acetate was tested in normotensive dogs at 0.01%, dosing once daily for 5 days. The maximum intraocular pressure (IOP) decrease from baseline was 2.8 mmHg (14%) at 100 h; the maximum ocular surface hyperemia (OSH) score was 0.8 at 28 h. This compound was also tested in laser-induced hypertensive monkeys, using one single day dose. At 0.01%, the maximum IOP decrease from baseline was 8.8 mmHg (19%) at 6 h.

pEC50, pKi: −log10 of the molar value.

T1 sequence (P43116 whole entry): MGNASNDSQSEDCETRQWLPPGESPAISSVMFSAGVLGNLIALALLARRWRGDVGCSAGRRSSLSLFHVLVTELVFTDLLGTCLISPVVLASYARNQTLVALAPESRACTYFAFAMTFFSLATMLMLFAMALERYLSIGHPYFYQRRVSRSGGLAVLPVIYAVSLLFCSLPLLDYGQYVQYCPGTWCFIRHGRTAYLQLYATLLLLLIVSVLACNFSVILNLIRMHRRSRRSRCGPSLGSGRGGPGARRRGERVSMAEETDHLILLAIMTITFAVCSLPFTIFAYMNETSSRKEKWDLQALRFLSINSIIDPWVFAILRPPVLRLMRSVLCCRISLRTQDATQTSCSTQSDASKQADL

In the case of `CCCCCCc1ccc2c(C(=O)Nc3cccc(OCC(=O)O)c3)cccc2c1` [Example 1, 2-(3-(6-Hexyl-1-naphthamido)phenoxy)acetic acid], the pKi on EP2 [1] was 7.00; at EP4 [2], less than 5.00. The pEC50 on EP2 [3] is 8.70.
Taken in the same sequence, the figures for `CCCCCc1ccc2c(C(=O)Nc3cccc(OCC(=O)O)c3)cccc2c1` [Example 2, 2-(3-(6-Pentyl-1-naphthamido)phenoxy)acetic acid] were 6.42, less than 5.00 and 8.70.
For `CCCCc1ccc2c(C(=O)Nc3cccc(OCC(=O)O)c3)cccc2c1` [Example 3, 2-(3-(6-Butyl-1-naphthamido)phenoxy)acetic acid] the same measures were 7.29, less than 5.00 and 9.00.
In the case of `CCCCCCCc1ccc2c(C(=O)Nc3cccc(OCC(=O)O)c3)cccc2c1` [Example 4, 2-(3-(6-Heptyl-1-naphthamido)phenoxy)acetic acid], the negative logarithm of the EC50 (pEC50) was less than 5.00 at EP4 [4] and 7.82 at EP2 [3]. Moreover, the pKi on EP2 [1] was 5.92; on EP4 [2] it was 5.11.
In the case of `CCCc1ccc2c(C(=O)Nc3cccc(OCC(=O)O)c3)cccc2c1` [Example 5, 2-(3-(6-Propyl-1-naphthamido)phenoxy)acetic acid], the pEC50 was 5.15 at EP4 [4] and 8.30 on EP2 [3]. In addition, the results for the pKi on EP2 [1] and at EP4 [2] were 7.52 and 5.16, respectively.
Take `CCc1ccc2c(C(=O)Nc3cccc(OCC(=O)O)c3)cccc2c1` [Example 6, 2-(3-(6-Ethyl-1-naphthamido)phenoxy)acetic acid]: the results for the pKi on EP2 [1] and on EP4 [2] were 6.95 and less than 5.00, respectively. The compound also showed a pEC50 on EP2 [3] of 8.30.
Take `Cc1ccc2c(C(=O)Nc3cccc(OCC(=O)O)c3)cccc2c1` [Example 7, 2-(3-(6-Methyl-1-naphthamido)phenoxy)acetic acid]: the figures for the negative logarithm of the Ki (pKi) at EP2 [1] and on EP4 [2] were 5.93 and less than 5.00, respectively. Besides, the negative-log EC50 (pEC50) at EP2 [3] is 7.19.
As to `O=C(O)COc1cccc(NC(=O)c2cccc3ccccc23)c1` [Example 8, 2-(3-(1-Naphthamido)phenoxy)acetic acid], the pKi on EP2 [1] is 5.34; on EP4 [2], less than 5.00. Further, the pEC50 at EP2 [3] is 7.08.
Consider `CCCCCCc1ccc2c(C(=O)NCCc3ccc(C(=O)O)s3)cccc2c1` [Example 9, 5-(2-(6-Hexyl-1-naphthamido)ethyl)thiophene-2-carboxylic acid], for which the pEC50 at EP4 [4] is 5.03; at EP2 [3] it was 7.60. Further, the values for the pKi at EP2 [1] and at EP4 [2] were 5.49 and 5.61, respectively.
Turning to `CCCCCC(O)c1ccc2c(C(=O)Nc3cccc(OCC(=O)O)c3)cccc2c1` (centres unmarked) [Example 10, 2-(3-(6-(1-hydroxyhexyl)-1-naphthamido)phenoxy)acetic acid], the pKi at EP2 [1] is 7.43; at EP4 [2], less than 5.00. For the same compound, the pEC50 at EP2 [3] was 9.70.
For `CCCC(O)c1ccc2c(C(=O)Nc3cccc(OCC(=O)O)c3)cccc2c1` (centres unmarked) [Example 11, 2-(3-(6-(1-Hydroxybutyl)-1-naphthamido)phenoxy)acetic acid] the same measures were 7.20, 5.28 and 9.15.
`CCCCCCc1cnc2c(C(=O)Nc3cccc(OCC(=O)O)c3)cccc2c1` [Example 12, 2-(3-(3-Hexylquinoline-8-carboxamido)phenoxy)acetic acid]: the pEC50 on EP4 [4] is 5.33; on hTP, 5.18; on hEP3A, 4.88; at EP2 [3], 9.10. The values for the pKi on EP2 [1] and at EP4 [2] were 7.60 and 5.67, respectively.
For `CCCCc1cnc2c(C(=O)Nc3cccc(OCC(=O)O)c3)cccc2c1` [Example 13, 2-(3-(3-Butylquinoline-8-carboxamido)phenoxy)acetic acid], the negative logarithm of the Ki (pKi) was 7.57 on EP2 [1] and 5.69 at EP4 [2]. Further, the results for the pEC50 on EP2 [3] and on EP4 [5] were 8.70 and less than 5.00, respectively.
Take `CCCCc1cnc2c(C(=O)NCCc3ccc(C(=O)O)s3)cccc2c1` [Example 14, 5-(2-(3-Butylquinoline-8-carboxamido)ethyl)thiophene-2-carboxylic acid]: the pKi on EP2 [1] is 6.46; on EP4 [2], 5.69. Further, the negative-log EC50 (pEC50) at EP2 [3] was 7.92; at EP4 [5], less than 5.00.
For `CCCCCOc1ccc2c(C(=O)Nc3cccc(OCC(=O)O)c3)cccc2c1` [Example 15, 2-(3-(6-(Pentyloxy)-1-naphthamido)phenoxy)acetic acid] the same measures were 6.70, 5.07, 7.60 and less than 5.00.
Take `CCCCCCc1cnc2c(C(=O)Nc3cccc(OCC(=O)OC(C)C)c3)cccc2c1` [Isopropyl 2-(3-(3-hexylquinoline-8-carboxamido)phenoxy)acetate]: the “maximum ocular surface hyperemia (OSH) score” value with normotensive dogs (0.01%, once daily for 5 days, at 28 h) stood at 0.8.
For `CCCCCC(O)c1ccc2c(C(=O)Nc3cccc(OCC(=O)OC(C)C)c3)cccc2c1` (centres unmarked) [Isopropyl 2-(3-(6-(1-hydroxyhexyl)-1-naphthamido)phenoxy)acetate], the “maximum ocular surface hyperemia (OSH) score” value amounted to 1.6 in the data set on normotensive dogs (0.005%, once daily for 5 days, at 2 h) and 1.5 with normotensive dogs (0.01%, once daily for 5 days, at 50 h).
Consider `CCCCc1ccc2c(C(=O)Nc3cccc(OCC(=O)OC(C)C)c3)cccc2c1` [Isopropyl 2-(3-(6-butyl-1-naphthamido)phenoxy)acetate], for which the “maximum ocular surface hyperemia (OSH) score” value in the data set with normotensive dogs (0.01%, once daily for 4 days, at 4 h) came out at 0.9.
Regarding `CCCCCCc1ccc2c(C(=O)Nc3cccc(OCC(=O)OC(C)C)c3)cccc2c1` [Isopropyl 2-(3-(6-hexyl-1-naphthamido)phenoxy)acetate], the “maximum ocular surface hyperemia (OSH) score” value in the data set on normotensive dogs (0.05%, once daily for 5 days, at 26 h) was 1.0.
